Experimental data taken from ChEMBL document CHEMBL3352178, “Antidepressant- and anxiolytic-like activity of 7-phenylpiperazinylalkyl-1,3-dimethyl-purine-2,6-dione derivatives with diversified 5-HT₁A receptor functional profile” (Bioorg Med Chem, 2015).
Active and inactive are the calls of the source. No cut-off for these calls is given here.

Experiments:
[1] = molecular target: 5-hydroxytryptamine receptor 7 (Homo sapiens, UniProt P34969); assay: Displacement of [3H]]-5-CT from human cloned 5-HT7R expressed in HEK293 cells; assay type: cell-based
[2] = molecular target: 5-hydroxytryptamine receptor 2A (Rattus norvegicus, UniProt P14842); assay: Displacement of [3H]-ketanserin from 5-HT2AR in rat cortex
[3] = molecular target: T1, 5-hydroxytryptamine receptor 1A (Rattus norvegicus, UniProt P19327); assay: Displacement of [3H]-8-OH-DPAT from 5-HT1AR in rat hippocampus; assay type: tissue-based
T1 sequence (P19327 whole entry): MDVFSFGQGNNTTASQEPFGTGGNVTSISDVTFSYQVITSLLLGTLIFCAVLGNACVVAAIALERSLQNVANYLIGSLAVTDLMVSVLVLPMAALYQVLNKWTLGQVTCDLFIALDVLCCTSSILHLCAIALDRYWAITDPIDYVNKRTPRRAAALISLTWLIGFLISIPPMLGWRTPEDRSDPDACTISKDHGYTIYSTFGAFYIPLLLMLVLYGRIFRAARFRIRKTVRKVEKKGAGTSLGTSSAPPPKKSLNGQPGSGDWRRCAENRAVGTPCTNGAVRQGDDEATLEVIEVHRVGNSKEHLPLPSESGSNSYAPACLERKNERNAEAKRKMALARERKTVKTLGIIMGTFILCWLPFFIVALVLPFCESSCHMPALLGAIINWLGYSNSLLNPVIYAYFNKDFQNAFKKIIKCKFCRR

[4] = molecular target: 5-hydroxytryptamine receptor 6 (Homo sapiens, UniProt P50406); assay: Displacement of [3H]LSD from human cloned 5-HT6R expressed in HEK293 cells; assay type: cell-based
Mus musculus = assay: Anxiolytic-like activity in mouse assessed as increase in number of punished crossings at 1.25 to 5 mg/kg, ip dosed 60 mins before test by four plate test; assay type: functional, organism-based
D(2) dopamine receptor = D(2) dopamine receptor (Rattus norvegicus, UniProt P61169); assay: Displacement of [3H]-spiperone from dopamine D2 receptor in rat striatum
Chain of D(2) dopamine receptor (P61169 whole entry): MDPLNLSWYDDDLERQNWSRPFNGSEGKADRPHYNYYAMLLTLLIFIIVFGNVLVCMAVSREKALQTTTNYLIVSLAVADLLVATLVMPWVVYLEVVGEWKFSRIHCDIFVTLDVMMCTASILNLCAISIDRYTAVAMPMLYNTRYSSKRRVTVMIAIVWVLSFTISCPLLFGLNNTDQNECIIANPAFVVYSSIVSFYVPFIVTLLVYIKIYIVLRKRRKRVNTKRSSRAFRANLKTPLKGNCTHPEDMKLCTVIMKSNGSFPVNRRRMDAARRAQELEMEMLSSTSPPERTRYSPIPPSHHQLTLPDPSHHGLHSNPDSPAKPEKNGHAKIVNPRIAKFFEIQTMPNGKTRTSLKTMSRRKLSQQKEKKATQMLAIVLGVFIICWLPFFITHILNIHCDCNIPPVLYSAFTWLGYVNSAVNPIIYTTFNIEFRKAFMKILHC

Chain of 5-hydroxytryptamine receptor 6 (P50406 whole entry): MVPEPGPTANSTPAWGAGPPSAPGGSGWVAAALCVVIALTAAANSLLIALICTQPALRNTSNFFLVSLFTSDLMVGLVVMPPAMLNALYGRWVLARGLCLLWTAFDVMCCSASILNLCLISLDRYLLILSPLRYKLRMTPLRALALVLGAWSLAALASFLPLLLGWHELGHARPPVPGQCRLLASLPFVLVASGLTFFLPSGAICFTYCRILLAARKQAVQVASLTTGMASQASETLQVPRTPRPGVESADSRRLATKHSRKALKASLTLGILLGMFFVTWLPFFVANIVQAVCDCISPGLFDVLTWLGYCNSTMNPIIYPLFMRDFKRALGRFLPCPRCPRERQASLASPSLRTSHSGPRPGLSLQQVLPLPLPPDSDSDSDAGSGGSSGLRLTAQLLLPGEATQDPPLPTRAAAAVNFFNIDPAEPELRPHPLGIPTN
Chain of 5-hydroxytryptamine receptor 7 (P34969 whole entry): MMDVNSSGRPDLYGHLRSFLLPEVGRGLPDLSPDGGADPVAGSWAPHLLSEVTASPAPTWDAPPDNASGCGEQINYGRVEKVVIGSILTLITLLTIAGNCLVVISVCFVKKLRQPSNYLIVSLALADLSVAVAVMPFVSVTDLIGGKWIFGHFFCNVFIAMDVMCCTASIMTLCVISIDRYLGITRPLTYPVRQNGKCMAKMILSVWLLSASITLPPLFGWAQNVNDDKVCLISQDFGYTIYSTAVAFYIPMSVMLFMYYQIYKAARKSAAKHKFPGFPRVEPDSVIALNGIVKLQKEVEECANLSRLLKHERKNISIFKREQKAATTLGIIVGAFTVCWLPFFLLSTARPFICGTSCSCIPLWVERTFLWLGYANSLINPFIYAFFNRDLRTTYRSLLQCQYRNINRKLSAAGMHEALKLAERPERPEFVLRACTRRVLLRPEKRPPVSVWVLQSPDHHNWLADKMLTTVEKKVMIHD
Chain of 5-hydroxytryptamine receptor 2A (P14842 whole entry): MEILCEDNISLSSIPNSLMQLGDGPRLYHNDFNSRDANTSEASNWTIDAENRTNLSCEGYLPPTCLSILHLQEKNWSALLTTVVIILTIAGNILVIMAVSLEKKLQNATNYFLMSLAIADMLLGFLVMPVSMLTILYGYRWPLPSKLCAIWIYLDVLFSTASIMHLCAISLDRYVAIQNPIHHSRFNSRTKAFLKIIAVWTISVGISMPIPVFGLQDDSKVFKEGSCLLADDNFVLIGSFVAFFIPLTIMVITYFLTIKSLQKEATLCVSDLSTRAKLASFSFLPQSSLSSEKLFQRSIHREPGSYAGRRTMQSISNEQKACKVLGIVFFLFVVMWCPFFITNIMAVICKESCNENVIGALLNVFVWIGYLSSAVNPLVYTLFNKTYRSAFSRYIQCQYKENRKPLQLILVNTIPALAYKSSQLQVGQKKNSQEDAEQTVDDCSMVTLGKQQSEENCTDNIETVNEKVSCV

SMILES	Ki [1] [nM]	Ki [2] [nM]	Ki [3] [nM]	Ki [4] [nM]	Activity (Mus musculus)	Ki (D(2) dopamine receptor) [nM]
Cn1c(=O)c2c(nc(N3CCOCC3)n2CCCCN2CCN(c3cccc(Cl)c3)CC2)n(C)c1=O	112	21	22	207	–	–
CN1C(=O)CN=C(c2ccccc2)c2cc(Cl)ccc21	–	–	–	–	Active	–
Cn1c(=O)c2c(ncn2CCCN2CCN(c3ccccc3)CC2)n(C)c1=O	1430	92	571	20100	–	1090
Cn1c(=O)c2c(ncn2CCCCCN2CCc3ccccc3C2)n(C)c1=O	1010	16400	171	9140	–	1220
Cn1c(=O)c2c(ncn2CCCCN2CCN(c3cccc(Cl)c3Cl)CC2)n(C)c1=O	73	162	55	68	–	15
COc1ccccc1N1CCN(CCCn2cnc3c2c(=O)n(C)c(=O)n3C)CC1	2210	927	119	12100	–	944
CCOc1nc2c(c(=O)n(C)c(=O)n2C)n1CCCCN1CCN(c2ccccc2OC)CC1	54	–	–	–	–	–
Cn1c(=O)c2c(ncn2CCCCN2CCc3ccccc3C2)n(C)c1=O	629	22000	239	11700	–	7820
